The values below come from publication PMC9501900 (Molecules, 2022).

Data set [1] in a line: Pharmacokinetics of gefitinib in rats, alone and coadministered with CJ (serum, LC-MS/MS). It counts as in vivo. Particulars: for Change (increase) of AUC0-t of gefitinib / Change (increase) of Cmax of gefitinib: coadministration with CJ (5.0 g/kg of cranberry) vs gefitinib alone, p < 0.05; for Change (increase) of AUC0-t of gefitinib / Change (increase) of Cmax of gefitinib / AUC(0-t) / Cmax / MRT / Tmax: rats; for AUC(0-t) / Cmax / MRT / Tmax: male, Sprague-Dawley, rat, serum, po, 50 mg/kg, mean ± S.E., n = 5. As for the experimental part:
Twelve male Sprague-Dawley rats (300–400 g) were supplied by BioLASCO Taiwan Co., Ltd. […] […] Rats were fasted for 12 h before dosing, and food was offered 3 h after drug administration. […] The serum was collected after centrifugation at 10,000× g for 15 min and stored at −20 °C until analysis.
Briefly, 50 μL of serum was partitioned with an equal volume of ethyl acetate containing erlotinib (0.5 μg/mL) as internal standard. The ethyl acetate layer was evaporated under N2 gas to dryness and reconstituted with 50 μL of acetonitrile containing 0.1% formic acid, and then 5 μL was subject to LC-MS/MS analysis.
The mobile phase consisted of 0.1% formic acid (A) and acetonitrile containing 0.1% formic acid (B), and a gradient elution was programmed as follows: A/B: 80/20 (0–1.0 min), 0/100 (1.0–3.5 min) and 80/20 (3.5–6.5 min). The flow rate was 0.2 mL/ min. Nitrogen was used as sheath gas at 50 arbitrary units and auxiliary gas at 10 arbitrary units. […] ESI-MS spectra were recorded in the positive ion mode.
Pharmacokinetic parameters were calculated by the noncompartment model of Phoenix WinNonlin® (version 8.1 Pharsight Corporation, St. Louis, MO, USA). The peak serum concentration (Cmax) was calculated based on experimental measurement. The areas under the serum concentration–time curves (AUC0-t) from time zero to last were calculated by the trapezoidal rule. Each pharmacokinetic parameter was compared among various treatment groups using one-way analysis of variance (ANOVA) with Scheffe’s test. Other studies were statistically compared using unpaired Student’s t-test. Statistical significance level was set at p < 0.05.

The conditions of data set [2]: cited from earlier work.
[3] abbreviates: gefitinib 50 mg/kg oral + water.
[4] abbreviates: gefitinib 50 mg/kg oral coadministered with CJ (5.0 g/kg of cranberry).

For the compound `COc1cc2ncnc(Nc3ccc(F)c(Cl)c3)c2cc1OCCCN1CCOCC1` [Gefitinib], in data set [1], the “Change (increase) of AUC0-t of gefitinib” value is reported as “(+55%)” and the “Change (increase) of Cmax of gefitinib” value is “(+28%)”. In addition, in data set [1] (listed as gefitinib), the “Change (increase) of AUC0-t of gefitinib” value stood at 55% and the “Change (increase) of Cmax of gefitinib” value turned out to be 28%. In data set [1] (setting [3]), the AUC(0-t) was 19500 ng·h/mL, the Cmax was determined as 1800 ± 300 ng/mL, the MRT is 8.52 h and the Tmax is 4.4 h. In data set [1] (setting [4]), the AUC(0-t) was 30300 ng·h/mL, the Cmax is 2300 ± 200 ng/mL, the MRT was 9.05 h and the Tmax is 3.6 h. For the same compound, in data set [2], the Bioavailability is listed as 57–59% and the Elimination half-life is > 24 h.
Regarding `Oc1cc2ncnc(Nc3ccc(F)c(Cl)c3)c2cc1OCCCN1CCOCC1` [O-desmethyl gefitinib], the “Concentrations of O-desmethyl gefitinib in serum” value in data set [1] (rat serum samples after oral gefitinib 50 mg/kg, calibration range 0.50–0.03 μg/mL) was “below the LLOQ”.

What is called AUC(0-t) is the area under the concentration-time curve up to a stated or last time point. In general, Cmax refers to the peak of the concentration-time curve. Usually MRT stands for the average time that molecules of a dose stay in the body. As a reminder, the Tmax is the time at which the peak concentration occurs.
